In article PMC10663516 (Scientific Reports, 2023):

Experiments:
[1] = set-up: method as in PMID 29241979; conditions: phase 2 MCL study; cited from earlier work
Tolerability in mice = format: in vivo; conditions: same strain as efficacy studies, 30 mg/kg QD PO, unpublished observations
Method: For acalabrutinib, the current clinically recommended oral dose in MCL is 100 mg twice daily (BID)[18],[19], which results in an exposure of 1111 h·ng/mL[18],[19]. There are no published data on the pharmacokinetics of acalabrutinib in mice. The compound was administered at 15 mg/kg BID in mouse xenograft tumor models, giving a total daily dose of 30 mg/kg.

[2] = mouse, in vivo, po, 25 mg/kg
OCI-Ly3 = assay: Cell viability, ATPlite; format: cell-based, human
Method: (§1) The potency of TL-895 effects on cell viability was further examined in vitro in a panel of diffuse large B-cell lymphoma (DLBCL) and MCL cell lines, comprising ten germinal B-cell like subtype (GCB)-DLBCL cell lines, six activated B-cell like (ABC)-DLBCL cell lines, and six MCL cell lines (Horizon Discovery Inc, Cambridge MA, USA). Cells were seeded into 384-well plates (500 cells/well) and incubated (37 °C for 24 h) before treatment with varying concentrations of TL-895 for 72 h. ATP levels were analyzed using the ATPlite Luminescence Assay System (Perkin Elmer, UK). Growth inhibition and maximum response were calculated using the Chalice Analyzer (Horizon Discovery Inc).

SU-DHL-2-epst = assay: Cell viability, ATPlite; format: cell-based, human
Method: as §1

HBL-1 = assay: Cell viability, ATPlite; format: cell-based, human
Method: as §1

TMD8 = assay: Cell viability, ATPlite; format: cell-based, human
Method: as §1

BTK [3] = molecular target: T1, BTK (Homo sapiens, UniProt Q06187); assay: Off-Chip mobility shift kinase assay (potency); format: biochemical; set-up: Purified full-length recombinant BTK (Carna Biosciences #08–080); purchased Carna Biosciences 08–080; conditions: 75 µM ATP, 90 min, n = 9
Method: Purified full-length recombinant BTK (Carna Biosciences #08–080) was diluted in buffer (see Supplementary Material) to a final concentration of 0.05 ng/µL with 75 µM ATP and 1 µM of the peptide FITC-AHA-[…]-NH2 (Tufts Core Facility, Boston, MA, USA) into microtiter plates. TL-895 (0.038–10,000 nM) was added and the samples were incubated at room temperature for 90 min (min) before the addition of stop buffer containing 10 mM ethylenediamine tetra-acetic acid (EDTA; see Supplementary Material). Samples were read on a Caliper LC3000 (Caliper Life Sciences, Waltham, MA, USA) using an Off-Chip mobility shift assay format to measure percentage conversion of substrate to product, from which half maximal inhibitory concentration (IC50)–response curves were generated.
potent second-generation BTK inhibitor, for the treatment of B-cell
Samantha M. Goodstal, Jing Lin, Timothy Crandall, Lindsey Crowley, Andrew T. Bender,
Albertina Pereira, Maria Soloviev, John S. Wesolowski, Riham Iadevaia,
Sven-Eric Schelhorn, Edith Ross, Federica Morandi, Jianguo Ma, Anderson Clark
Kinase assay buffer components
4 mM dithiothreitol (Sigma, D0632)
100 mM 4-(2-hydroxyethyl)-1-piperazineethanesulfonic acid (HEPES) pH 7.5
0.227% Coating Reagent #3 (Caliper Life Sciences)
TL-89 5 lo g c onc ent rati on (M )
Supplementary Figure S1. Inhibition of recombinant human full-length BTK activity by TL-
895 and resulting IC50. […]

BTK [4] = molecular target: T1, BTK; assay: Millipore Kinase Profiler screening panel, BTK; format: biochemical; set-up: purchased EMD Millipore; conditions: n = 2
Method: The Kinase Profiler™ screening panel (EMD Millipore, Burlington, MA, USA) was used to test the inhibitory activity of TL-895 against 270 protein kinases. Kinases were incubated with TL-895 (1 µM) for 20 min to 4 h at room temperature, according to standard kinome screen procedures. […]

A431 and A549 = assay: ADCC induced by anti-PD-L1 or anti-EGFR antibody (51Cr release); format: cell-based, human; conditions: A431 and A549 target cells, PBMC effector cells, 4 h; TL-895 0.05 and 3 µM or 8 nM–25 µM
Method: In a second study, ADCC induced by anti-programmed death-ligand 1 (anti-PD-L1) or anti-EGFR antibody was measured using two cultured human tumor cell lines (A431 and A549, target cells; obtained from ATCC). Target cells were stimulated with human interferon-gamma (200 ng/mL) for 48 h to increase surface expression of PD-L1 target protein. Target cell and effector cells (peripheral blood mononuclear cells) were incubated for 4 h with (a) increasing concentrations of antibody (0.2–1000 ng/mL) and TL-895 (0, 0.05 and 3 µM), or (b) a fixed concentration of antibody (20 ng/mL) and increasing concentrations of TL-895 (8 nM–25 µM). ADCC analysis was based on the quantitation of chromium-51 (^51Cr) release during lysis of target cells using […] detection on a MicroBeta2 2450-0060 liquid scintillation and luminescence counter (PerkinElmer, Waltham, MA, USA).

B-cell malignancies = conditions: cited from earlier work
GCB-DLBCL cell lines = assay: Cell viability, ATPlite, GCB-DLBCL panel; format: cell-based; conditions: Homo sapiens; all GCB-DLBCL cell lines, 72 h; read-out: IC50s in GCB-DLBCL cell lines
Method: as §1

HepG2 cells = assay: Cytotoxicity by ATP content (CellTiter-Glo); format: cell-based, human; conditions: HepG2 EC50 at 24 and 72 h
Method: (§2) HepG2 cells (human hepatocellular carcinoma [epithelial]) and primary human hepatocytes were cultured in DMEM/F-12 medium supplemented with antibiotics, sodium pyruvate, insulin and 10% fetal calf serum. During the testing steps, the medium was replaced by serum-free media containing bovine serum albumin (BSA) and dexamethasone. All the cultures are incubated at 37 °C in a humidified chamber containing 5% CO2. […] HepG2 and primary hepatocytes were cultured in 96-well tissue culture plates either for luminescence (2E4/well in 100 µL) or pre-coated with collagen I (3.5E4/well in 100 µL, respectively).
(§3) For the cytotoxicity data, the % values relative (%RV) to the vehicle controls were calculated for each dose level. […] The overall EC50s were the averages of the values obtained from each experiment (PRISM® GraphPad™ Software, Boston, MA).

[5] = Cytotoxicity by ATP content (CellTiter-Glo); format: cell-based, human; conditions: human, HepG2 cells
Method: as §2, §3

[6] = Homo sapiens, HBL1, HBL-1 (ABC-DLBCL), 72 h
[7] = Homo sapiens, TMD8 (ABC-DLBCL), 72 h

T1 sequence (Q06187 whole entry): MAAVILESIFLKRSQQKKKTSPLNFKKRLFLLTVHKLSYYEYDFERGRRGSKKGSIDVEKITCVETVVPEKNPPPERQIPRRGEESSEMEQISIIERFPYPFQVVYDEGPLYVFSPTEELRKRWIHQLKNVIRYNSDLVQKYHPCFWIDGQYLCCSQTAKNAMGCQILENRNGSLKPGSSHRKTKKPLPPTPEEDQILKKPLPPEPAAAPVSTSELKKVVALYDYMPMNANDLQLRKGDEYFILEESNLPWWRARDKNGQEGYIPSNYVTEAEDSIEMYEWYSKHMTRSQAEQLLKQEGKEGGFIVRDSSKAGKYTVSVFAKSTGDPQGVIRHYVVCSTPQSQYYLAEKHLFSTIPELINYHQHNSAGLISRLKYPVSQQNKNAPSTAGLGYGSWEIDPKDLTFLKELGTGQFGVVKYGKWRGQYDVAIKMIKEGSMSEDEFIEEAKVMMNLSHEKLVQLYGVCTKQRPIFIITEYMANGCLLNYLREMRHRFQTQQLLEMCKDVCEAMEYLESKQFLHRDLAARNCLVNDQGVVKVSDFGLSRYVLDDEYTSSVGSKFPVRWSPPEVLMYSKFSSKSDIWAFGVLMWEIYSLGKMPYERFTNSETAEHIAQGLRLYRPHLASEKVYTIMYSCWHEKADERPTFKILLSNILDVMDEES

CC#CC(=O)N1CCC[C@H]1c1nc(-c2ccc(C(=O)Nc3ccccn3)cc2)c2c(N)nccn12 [Acalabrutinib]
Adverse event: diarrhea [1]: 31%
Adverse event: fatigue [1]: 27%
Adverse event: headache [1]: 38%
Grade ≥ 3 adverse event: anemia [1]: 9%
Grade ≥ 3 adverse event: neutropenia [1]: 10%
Grade ≥ 3 adverse event: pneumonia [1]: 5%
Tolerability (Tolerability in mice): no significant tolerability issues

C=CC(=O)N1CCC(F)(CNc2ncnc(N)c2-c2ccc(Oc3ccccc3)cc2)CC1 [TL-895]
Exposure relative to that needed for 90–95% target occupancy [2]: 8.5 fold
Emax (OCI-Ly3; Homo sapiens, OCI-Ly3 (ABC-DLBCL), 72 h, read-out: Max response (GI %)): 39%
Sensitivity to TL-895 (OCI-Ly3; OCI-Ly3, MyD88 mutation, CD79 wild-type): unresponsive
Emax (SU-DHL-2-epst; Homo sapiens, SU-DHL-2-epst (ABC-DLBCL), 72 h, read-out: Max response (GI %)): 2%
Sensitivity to TL-895 (SU-DHL-2-epst; SU-DHL-2-epst, MyD88 mutation, CD79 wild-type): unresponsive
Sensitivity to TL-895 (HBL-1; HBL-1, mutations in both CD79b and MyD88): sensitive
GI50 (HBL-1; [6]): 560 nM
IC50 (HBL-1; [6]): 10300 nM
Emax (HBL-1; Homo sapiens, HBL1, HBL-1 (ABC-DLBCL), 72 h, read-out: Max response (GI %)): 89%
GI50 (TMD8; [7]): 10 nM
IC50 (TMD8; [7]): 10 nM
Emax (TMD8; Homo sapiens, TMD8 (ABC-DLBCL), 72 h, read-out: Max response (GI %)): 181%
Sensitivity to TL-895 (TMD8; TMD8, mutations in both CD79b and MyD88): sensitive
IC50 (BTK [3]): 1.5 nM
IC50 (BTK [4]): 18.5 nM
Effect on ADCC of anti-PD-L1 or anti-EGFR antibodies (concentration–response, maximum cell lysis) (A431 and A549): did not affect the concentration–response or maximum cell lysis when combined with anti-PD-L1 or anti-EGFR antibodies, except at the highest concentrations tested
Dose-limiting toxicities (B-cell malignancies; doses up to 900 mg/day): no dose-limiting toxicities were reported
Maximum tolerated dose (B-cell malignancies; doses up to 900 mg/day): not reached
Patients with best response of PR or higher (B-cell malignancies; monotherapy): Half of patients
Patients with treatment-related grade 3–4 adverse events (B-cell malignancies; three patients): 17%
IC50 (GCB-DLBCL cell lines): > 5000 nM
Cytotoxicity EC50 in HepG2 cells relative to IC50s in sensitive MCL and DLBCL cell lines (HepG2 cells): 5–5000 fold
EC50 at 24 h ([5]; HepG2, 24 h): > 50000 nM
EC50 at 72 h ([5]; HepG2, 72 h): > 50000 nM
